According to PMC4906375, “Contribution of Amphipathicity and Hydrophobicity to the Antimicrobial Activity and Cytotoxicity of β-Hairpin Peptides” (ACS Infectious Diseases, 2016):
In brackets after ≈: the same amount, converted by molar mass. Each block holds one compound with its values, some of them ahead of it.

Experiments:
[1] = tested on: C. neoformans ATCC 208821; test: microbe, parasite or virus in culture; type: cell-based, Cryptococcus neoformans; settings: Cryptococcus neoformans, ATCC208821; C. neoformans ATCC 208821; n = 4; read-out: MIC
Method: (§1) Both antibacterial and antifungal MIC assays were performed by a broth microdilution plate based method as per CLSI guidelines for antimicrobial susceptibility testing.[53],[54] […] Full assay details are included in the Supporting Information with a full list of strains tested in Table S1.
(§2) Antibacterial assay (Minimum Inhibitory Concentration [MIC]).
(§3) MIC assay was performed by a broth microdilution plate based method as per CLSI guidelines for antimicrobial susceptibility testing of aerobic bacteria.1 Compounds were prepared at 1.28 mg/mL solution in water. The tested strains, Table S1, were cultured in Luria broth (LB) (In Vitro Technologies, USB75852), at 37 °C overnight. A sample of culture was then diluted 40Pfold in fresh Muller Hinton broth (MHB) (Bacto laboratories, 211443) and incubated at 37 °C for 1.5P2 h. The compounds were serially diluted twoPfold across the wells, with compound concentrations ranging from 0.015 µg/mL to 512 µg/mL, plated in duplicate. The resultant midPlog phase cultures were diluted to the final concentration of 1×10^6 CFU/mL, then 50 µL was added to each well of the compoundP containing 96Pwell plates (Corning 3641, NonPbinding Surface [NBS]), giving a final compound concentration range of 0.008 µg/mL to 256 µg/mL and 5x10^5 CFU/mL. All the plates were covered and incubated at 37 °C for 18 h. MICs were determined visually, being defined as the lowest concentration showing no visible growth. Resazurin was added at 0.001% final concentration to each well and incubated for 2 h before MICs were rePread for confirmation using the colour change from blue to pink to indicate wells containing viable cells. The resazurin assay was added in some wells where some form of precipitate was present in otherwise clear wells, making it difficult to ascertain which wells had visible […]
(§4) Antifungal assay (Minimum Inhibitory Concentration [MIC]). MIC assay was performed by a broth microdilution plate based method as per CLSI guidelines for antimicrobial susceptibility testing.2 Fungi strains, Table S1, were cultured for 3 days on Yeast ExtractPPeptone Dextrose (YPD) (SigmaPAldrich, Y1500) agar at 30 °C. A yeast suspension of 1x10^6 to 5x10^6 CFU/mL was prepared from five colonies. These stock suspensions were diluted with Yeast Nitrogen Base (YNB) (Becton Dickinson, 233520) broth to a final concentration of 2.5 ×10^3 CFU/mL. All samples, compounds and standards were plated in 96Pwell plates (Corning 3641, NonPbinding Surface [NBS]), by adding 10 µL of 1.28 mg/mL stock solution to each well and 90 µL of media. Then, the samples were serial diluted (1:2) in 12 concentrations across the plate. The standard antifungal ranged from 256 […]
(§5) µg/mL to 0.12 µg/mL and compounds from 128 µg/mL to 0.06 µg/mL with final volumes of 50 µL per well, plated in duplicate. Then, 50 µL of the fungi suspension that was previously prepared in YNB broth to the final concentration of 2.5×10^3 CFU/mL, was added to each well of the compoundPcontaining plates, giving a final standard compound concentration range of 128 µg/mL to 0.06 µg/mL and tested compound from 64 µg/mL to 0.03 µg/mL. Plates were covered and incubated at 35 °C for 24 h. Candida albicans MICs were determined by measuring the absorbance at OD530. For Cryptococcus neoformans 10 µL of 0.06 % resazurin were added to the 24 h incubated plates. Then, these plates were incubated for another 3 h.
(§6) Cryptococcus neoformans MICs were determined by measuring the absorbance at OD570P600. […]

C. albicans ATCC 90028 = test: microbe, parasite or virus in culture; type: cell-based, Candida albicans; settings: Candida albicans, ATCC90028; C. albicans ATCC 90028; n = 4; read-out: MIC
Method: as §1, §2, §3, §4, §5, §6

[2] = tested on: S. aureus ATCC 43300 (MRSA); test: microbe, parasite or virus in culture; type: cell-based, Staphylococcus aureus; settings: Staphylococcus aureus
Method: as §1, §2, §3
(§7) Antifungal assay (Minimum Inhibitory Concentration [MIC]). MIC assay was performed by a broth microdilution plate based method as per CLSI guidelines for antimicrobial susceptibility testing.2 Fungi strains, Table S1, were cultured for 3 days on Yeast ExtractPPeptone Dextrose (YPD) (SigmaPAldrich, Y1500) agar at 30 °C. A yeast suspension of 1x10^6 to 5x10^6 CFU/mL was prepared from five colonies. These stock suspensions were diluted with Yeast Nitrogen Base (YNB) (Becton Dickinson, 233520) broth to a final concentration of 2.5 ×10^3 CFU/mL. All samples, compounds and standards were plated in 96Pwell plates (Corning 3641, NonPbinding Surface [NBS]), by adding 10 µL of 1.28 mg/mL stock solution to each well and 90 µL of media. Then, the samples were serial diluted (1:2) in 12 concentrations across the plate. The standard antifungal ranged from 256

B. subtilis ATCC 6051 = test: microbe, parasite or virus in culture; type: cell-based, Bacillus subtilis; settings: Bacillus subtilis, ATCC6051
Method: as §1, §2, §3, §7

[3] = tested on: E. coli ATCC 25922 (control strain); type: cell-based, Escherichia coli; settings: E. coli ATCC 25922 (control strain); n = 4
Method: as §1, §2, §3, §7

E. coli MB 4902 (ΔlpxC) = type: cell-based, Escherichia coli; settings: n = 4
Method: as §1, §2, §3, §7

[4] = tested on: E. coli ATCC 700926 (K12); type: cell-based, Escherichia coli; settings: E. coli ATCC 700926 (K12); n = 4
Method: as §1, §2, §3, §7

K. pneumoniae ATCC 13883 = type: cell-based, Klebsiella pneumoniae; settings: K. pneumoniae ATCC 13883; n = 4
Method: as §1, §2, §3, §7

[5] = tested on: K. pneumoniae ATCC 700603 (MDR); type: cell-based, Klebsiella pneumoniae; settings: n = 4
Method: as §1, §2, §3, §7

[6] = tested on: K. pneumoniae BAA 2146 (NDM-1 pos); type: cell-based, Klebsiella pneumoniae; settings: n = 4
Method: as §1, §2, §3, §7

A. baumannii ATCC 19606 = type: cell-based, Acinetobacter baumannii; settings: A. baumannii ATCC 19606; n = 4
Method: as §1, §2, §3, §7

P. aeruginosa ATCC 27853 = type: cell-based, Pseudomonas aeruginosa; settings: P. aeruginosa ATCC 27853; n = 4
Method: as §1, §2, §3, §7

MIC [1]: 0.015 µg/mL (≈ 0.0162 µM) | MIC (C. albicans ATCC 90028): 0.06 µg/mL (≈ 0.0649 µM)
Compound: C[C@@H]1[C@H](O)[C@@H](C)/C=C/C=C/C=C/C=C/C=C/C=C/C=C/[C@H](O[C@@H]2O[C@H](C)[C@@H](O)[C@H](N)[C@@H]2O)C[C@@H]2O[C@](O)(C[C@@H](O)C[C@@H](O)[C@H](O)CC[C@@H](O)C[C@@H](O)CC(=O)O[C@H]1C)C[C@H](O)[C@H]2C(=O)O [amphotericin B, reference compound]

Compound: CN[C@H](CC(C)C)C(=O)N[C@H]1C(=O)N[C@@H](CC(N)=O)C(=O)N[C@H]2C(=O)N[C@H]3C(=O)N[C@H](C(=O)N[C@H](C(=O)O)c4cc(O)cc(O)c4-c4cc3ccc4O)[C@H](O)c3ccc(c(Cl)c3)Oc3cc2cc(c3O[C@@H]2O[C@H](CO)[C@@H](O)[C@H](O)[C@H]2O[C@H]2C[C@](C)(N)[C@H](O)[C@H](C)O2)Oc2ccc(cc2Cl)[C@H]1O [vancomycin, reference compound]
MIC [2]: 1 µg/mL (≈ 0.69 µM) | MIC (B. subtilis ATCC 6051): 0.25 µg/mL (≈ 0.173 µM)

Compound: colistin [reference compound]
MIC [3]: 0.03 µg/mL | MIC (E. coli MB 4902 (ΔlpxC)): 0.009 µg/mL | MIC [4]: 0.03 µg/mL | MIC (K. pneumoniae ATCC 13883): 0.5 µg/mL | MIC [5]: 0.125 µg/mL | MIC [6]: 0.03 µg/mL | MIC (A. baumannii ATCC 19606): 0.03 µg/mL | MIC (P. aeruginosa ATCC 27853): 0.25 µg/mL
